Data reported in ChEMBL document CHEMBL4359837, “Discovery of 2-(4-Chloro-3-(trifluoromethyl)phenyl)-N-(4-((6,7-dimethoxyquinolin-4-yl)oxy)phenyl)acetamide (CHMFL-KIT-64) as a Novel Orally Available Potent Inhibitor against Broad-Spectrum Mutants of c-KIT Kinase for Gastrointestinal Stromal Tumors” (J Med Chem, 2019).
Each block holds one compound with its values, some of them ahead of it. Calls of active or inactive are those of the source. The rule behind the calls is not given here.

What was measured:
[1] = test system: Mast/stem cell growth factor receptor Kit (Homo sapiens), P10721 [UNDEFINED MUTATION]; conditions: GISTT1, 0.1 uM
Chain of Mast/stem cell growth factor receptor Kit (Homo sapiens), P10721 [UNDEFINED MUTATION] (P10721 whole entry, looked up, change not shown): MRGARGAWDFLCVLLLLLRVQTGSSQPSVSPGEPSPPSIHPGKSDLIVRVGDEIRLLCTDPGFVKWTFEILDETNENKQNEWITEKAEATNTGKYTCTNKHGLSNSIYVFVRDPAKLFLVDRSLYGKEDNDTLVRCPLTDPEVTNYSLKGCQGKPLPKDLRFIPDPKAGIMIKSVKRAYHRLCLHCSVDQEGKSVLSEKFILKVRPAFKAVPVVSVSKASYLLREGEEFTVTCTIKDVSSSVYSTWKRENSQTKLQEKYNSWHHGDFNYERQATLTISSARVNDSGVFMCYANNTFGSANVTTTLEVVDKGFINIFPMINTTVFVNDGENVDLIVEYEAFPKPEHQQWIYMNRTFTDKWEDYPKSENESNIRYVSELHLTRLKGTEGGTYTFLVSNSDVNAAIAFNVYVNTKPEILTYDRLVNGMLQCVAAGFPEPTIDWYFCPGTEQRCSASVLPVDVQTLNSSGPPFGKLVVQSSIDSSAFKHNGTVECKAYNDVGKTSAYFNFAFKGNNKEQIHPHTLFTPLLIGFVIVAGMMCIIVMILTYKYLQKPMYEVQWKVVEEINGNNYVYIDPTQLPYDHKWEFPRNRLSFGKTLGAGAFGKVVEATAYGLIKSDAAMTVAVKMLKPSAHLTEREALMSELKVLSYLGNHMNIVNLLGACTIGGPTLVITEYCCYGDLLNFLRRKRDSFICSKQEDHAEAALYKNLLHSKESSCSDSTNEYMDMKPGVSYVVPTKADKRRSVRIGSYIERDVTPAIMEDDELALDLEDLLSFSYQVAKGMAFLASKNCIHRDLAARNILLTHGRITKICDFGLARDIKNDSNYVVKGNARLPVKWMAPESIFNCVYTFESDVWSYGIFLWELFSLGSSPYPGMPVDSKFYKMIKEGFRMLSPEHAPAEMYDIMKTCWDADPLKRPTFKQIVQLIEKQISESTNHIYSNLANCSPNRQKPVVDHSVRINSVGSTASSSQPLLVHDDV
Description: Inhibition of c-KIT 560 to 578 deletion/T670I mutant in human GISTT1 cells assessed as reduction in ERK phosphorylation at T204 residue at 0.1 uM measured after 2 hrs by Western blot analysis

[2] = test system: Mast/stem cell growth factor receptor Kit (Homo sapiens), P10721 [UNDEFINED MUTATION]; conditions: GISTT1, 0.1 uM; remark: listed apart in the source
Description: Inhibition of c-KIT 560 to 578 deletion/T670I mutant in human GISTT1 cells assessed as reduction in STAT3 phosphorylation at Y705 residue at 0.1 uM measured after 2 hrs by Western blot analysis

[3] = test system: Mast/stem cell growth factor receptor Kit (Homo sapiens), P10721 [UNDEFINED MUTATION]; conditions: 0.1 uM
Description: Inhibition of c-KIT 560 to 578 deletion/T670I mutant in human GIST5R assessed as reduction in AKT phosphorylation at T308 residue at 0.1 uM measured after 2 hrs by Western blot analysis

[4] = test system: Mast/stem cell growth factor receptor Kit (Homo sapiens), P10721 [UNDEFINED MUTATION]; conditions: 0.1 uM; remark: listed apart in the source
Description: Inhibition of c-KIT 560 to 578 deletion/T670I mutant in human GIST5R assessed as reduction in AKT phosphorylation at S473 residue at 0.1 uM measured after 2 hrs by Western blot analysis

[5] = test system: Mast/stem cell growth factor receptor Kit (Homo sapiens), P10721 [UNDEFINED MUTATION]; conditions: GISTT1, 0.1 uM; remark: listed apart in the source
Description: Inhibition of c-KIT 560 to 578 deletion/T670I mutant in human GISTT1 cells assessed as reduction in ERK phosphorylation at T202 residue at 0.1 uM measured after 2 hrs by Western blot analysis

[6] = test system: Mast/stem cell growth factor receptor Kit (Homo sapiens), P10721 [UNDEFINED MUTATION]; conditions: GISTT1, 0.1 uM; remark: listed apart in the source
Description: Inhibition of c-KIT 560 to 578 deletion/T670I mutant in human GISTT1 cells assessed as reduction in c-KIT autophosphorylation at Y823 residue at 0.1 uM measured after 2 hrs by Western blot analysis

[7] = test system: Mast/stem cell growth factor receptor Kit (Homo sapiens), P10721 [UNDEFINED MUTATION]; conditions: GISTT1, 0.1 uM; remark: listed apart in the source
Description: Inhibition of c-KIT 560 to 578 deletion mutant in human GISTT1 cells assessed as reduction in c-KIT autophosphorylation at Y703 residue at 0.1 uM measured after 2 hrs by Western blot analysis

[8] = test system: Mast/stem cell growth factor receptor Kit (Homo sapiens), P10721 [UNDEFINED MUTATION]; conditions: GISTT1, 0.1 uM; remark: listed apart in the source
Description: Inhibition of c-KIT 560 to 578 deletion mutant in human GISTT1 cells assessed as reduction in pS6 phosphorylation at S236 residue at 0.1 uM measured after 2 hrs by Western blot analysis

[9] = test system: Mast/stem cell growth factor receptor Kit (Homo sapiens), P10721 [UNDEFINED MUTATION]; conditions: GISTT1, 0.1 uM; remark: listed apart in the source
Description: Inhibition of c-KIT 560 to 578 deletion mutant in human GISTT1 cells assessed as reduction in AKT phosphorylation at T308 residue at 0.1 uM measured after 2 hrs by Western blot analysis

[10] = test system: Mast/stem cell growth factor receptor Kit (Homo sapiens), P10721 [UNDEFINED MUTATION]; conditions: GISTT1, 0.1 uM; remark: listed apart in the source
Description: Inhibition of c-KIT 560 to 578 deletion mutant in human GISTT1 cells assessed as reduction in AKT phosphorylation at S473 residue at 0.1 uM measured after 2 hrs by Western blot analysis

[11] = target: RAC-alpha serine/threonine-protein kinase (Homo sapiens) (UniProt P31749); format: cell-based; conditions: GISTT1
Chain of RAC-alpha serine/threonine-protein kinase (Homo sapiens) (P31749 whole entry): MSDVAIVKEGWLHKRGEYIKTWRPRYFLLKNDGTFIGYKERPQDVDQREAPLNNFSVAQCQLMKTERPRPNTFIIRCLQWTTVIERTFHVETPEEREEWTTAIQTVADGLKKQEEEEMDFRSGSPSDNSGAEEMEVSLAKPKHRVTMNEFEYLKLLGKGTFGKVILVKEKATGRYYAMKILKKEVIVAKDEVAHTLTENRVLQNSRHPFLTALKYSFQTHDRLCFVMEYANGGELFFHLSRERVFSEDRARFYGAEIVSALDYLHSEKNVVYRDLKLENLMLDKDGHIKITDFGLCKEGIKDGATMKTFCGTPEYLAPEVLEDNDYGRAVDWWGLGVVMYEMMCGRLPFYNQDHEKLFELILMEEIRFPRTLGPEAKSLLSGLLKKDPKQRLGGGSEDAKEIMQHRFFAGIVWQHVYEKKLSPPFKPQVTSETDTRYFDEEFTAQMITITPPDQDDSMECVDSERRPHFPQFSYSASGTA

[12] = Cmax in Beagle dog at 1 mg/kg, iv by LC-MS/MS analysis; format: ADME, organism-based, Canis lupus familiaris; design: dose 1 mg/kg, route intravenous; conditions: in vivo
[13] = Half life in Beagle dog at 1 mg/kg, iv by LC-MS/MS analysis; format: ADME, organism-based, Canis lupus familiaris; conditions: in vivo
[14] = Half life in Sprague-Dawley rat at 1 mg/kg, iv by LC-MS/MS analysis; format: ADME, organism-based; conditions: in vivo
[15] = target: Macrophage colony-stimulating factor 1 receptor (Homo sapiens, UniProt P07333); assay: Binding affinity to wild-type human partial length CSF1R (I564 to S939 residues) expressed in bacterial expression system assessed as residual binding level at 1 uM by Kinomescan method relative to control
Mus musculus [16] = format: functional, organism-based; conditions: BALB/c, 80 mg/kg, TDE = time-dependent effect
[17] = Cmax in Beagle dog at 5 mg/kg, po by LC-MS/MS analysis; format: ADME, organism-based, Canis lupus familiaris; design: dose 5 mg/kg, route oral; conditions: in vivo
[18] = test system: Mast/stem cell growth factor receptor Kit (Homo sapiens), P10721 [T670I]; conditions: Mus musculus
Description: Inhibition of c-KIT T670I mutant in mouse BAF3(transformed) cells assessed as growth inhibition after 72 hrs by CCK8 assay

[19] = target: T1, Mast/stem cell growth factor receptor Kit (Homo sapiens, UniProt P10721, 560-578DEL/T670I); format: cell-based, GISTT1
T1 sequence (P10721 whole entry, looked up, stated change not applied): as the sequence (P10721 whole entry, looked up, change not shown) above

Mus musculus [20] = format: functional, organism-based; conditions: BALB/c, 80 mg/kg
[21] = target: Vascular endothelial growth factor receptor 3 (Mus musculus) (UniProt P35917); assay: Inhibition of FLT4 in mouse BAF3(transformed) cells assessed as growth inhibition after 72 hrs by CCK8 assay
Chain of Vascular endothelial growth factor receptor 3 (Mus musculus) (P35917 whole entry): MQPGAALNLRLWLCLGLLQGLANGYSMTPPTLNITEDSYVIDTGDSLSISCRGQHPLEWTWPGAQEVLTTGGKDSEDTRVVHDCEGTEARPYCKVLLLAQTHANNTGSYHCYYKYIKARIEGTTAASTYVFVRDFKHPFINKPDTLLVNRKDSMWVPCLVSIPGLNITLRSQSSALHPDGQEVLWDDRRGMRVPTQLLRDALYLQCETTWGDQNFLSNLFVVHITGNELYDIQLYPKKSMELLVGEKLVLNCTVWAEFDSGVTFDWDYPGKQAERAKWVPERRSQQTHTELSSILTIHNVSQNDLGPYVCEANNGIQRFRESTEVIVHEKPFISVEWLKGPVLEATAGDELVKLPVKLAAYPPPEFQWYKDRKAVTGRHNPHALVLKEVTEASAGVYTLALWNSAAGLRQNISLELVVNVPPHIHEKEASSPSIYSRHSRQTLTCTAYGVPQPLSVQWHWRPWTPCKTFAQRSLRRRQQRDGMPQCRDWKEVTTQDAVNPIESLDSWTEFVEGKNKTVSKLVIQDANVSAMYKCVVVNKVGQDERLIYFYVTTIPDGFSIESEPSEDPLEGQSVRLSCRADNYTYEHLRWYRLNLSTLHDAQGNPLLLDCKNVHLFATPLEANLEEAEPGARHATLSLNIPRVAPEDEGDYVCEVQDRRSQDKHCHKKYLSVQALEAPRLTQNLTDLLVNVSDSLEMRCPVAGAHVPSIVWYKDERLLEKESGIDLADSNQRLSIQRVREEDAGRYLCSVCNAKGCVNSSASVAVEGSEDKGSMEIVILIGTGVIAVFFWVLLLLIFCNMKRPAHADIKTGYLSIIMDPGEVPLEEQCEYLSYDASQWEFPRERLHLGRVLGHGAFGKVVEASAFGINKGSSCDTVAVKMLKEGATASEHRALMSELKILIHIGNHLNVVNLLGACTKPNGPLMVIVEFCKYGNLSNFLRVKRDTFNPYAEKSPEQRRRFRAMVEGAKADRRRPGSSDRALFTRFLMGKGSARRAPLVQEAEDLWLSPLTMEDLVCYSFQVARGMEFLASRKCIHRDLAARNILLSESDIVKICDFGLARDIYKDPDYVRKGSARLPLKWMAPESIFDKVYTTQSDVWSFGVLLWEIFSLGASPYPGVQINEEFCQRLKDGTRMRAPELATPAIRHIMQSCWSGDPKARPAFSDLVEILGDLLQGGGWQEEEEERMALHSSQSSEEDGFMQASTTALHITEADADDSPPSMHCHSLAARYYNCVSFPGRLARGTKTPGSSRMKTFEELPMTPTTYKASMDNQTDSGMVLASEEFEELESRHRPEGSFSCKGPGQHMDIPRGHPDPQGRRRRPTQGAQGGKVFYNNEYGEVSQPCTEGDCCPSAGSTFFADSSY

GISTT1 [22] = format: functional, Homo sapiens
GISTT1 [23] = format: functional, Homo sapiens; remark: listed apart in the source
[24] = Half life in Sprague-Dawley rat at 10 mg/kg, po by LC-MS/MS analysis; format: ADME, organism-based; conditions: in vivo
[25] = target: T1, Mast/stem cell growth factor receptor Kit
[26] = Tmax in Sprague-Dawley rat at 10 mg/kg, po by LC-MS/MS analysis; format: ADME, organism-based; conditions: in vivo
[27] = Tmax in mouse at 10 mg/kg, po by LC-MS/MS analysis; format: ADME, organism-based; conditions: in vivo
[28] = target: T1, Mast/stem cell growth factor receptor Kit; remark: listed apart in the source
[29] = Half life in mouse at 10 mg/kg, po by LC-MS/MS analysis; format: ADME, organism-based; conditions: in vivo
[30] = target: T2, Mast/stem cell growth factor receptor Kit (Homo sapiens, UniProt P10721, 560-578DEL); format: cell-based, GISTT1
T2 sequence (P10721 whole entry, looked up, stated change not applied): as the sequence (P10721 whole entry, looked up, change not shown) above

Mus musculus [31] = format: functional, organism-based; conditions: BALB/c, 80 mg/kg; remark: listed apart in the source
[32] = target: T1, Mast/stem cell growth factor receptor Kit; format: cell-based, GISTT1; remark: listed apart in the source
[33] = test system: Mast/stem cell growth factor receptor Kit (Homo sapiens), P10721 [N822K]; conditions: Mus musculus
Description: Inhibition of c-KIT N822K mutant in mouse BAF3(transformed) cells assessed as growth inhibition after 72 hrs by CCK8 assay

[34] = target: T1, Mast/stem cell growth factor receptor Kit; format: cell-based, GISTT1; remark: listed apart in the source
[35] = target: T2, Mast/stem cell growth factor receptor Kit; format: cell-based, GISTT1; remark: listed apart in the source
GISTT1 [36] = format: functional, cell-based; conditions: Homo sapiens
Mus musculus [37] = format: functional, organism-based; conditions: BALB/c, 80 mg/kg, TDE = time-dependent effect; remark: listed apart in the source
[38] = target: RAC-alpha serine/threonine-protein kinase (Homo sapiens) (UniProt P31749); format: cell-based
[39] = test system: Mast/stem cell growth factor receptor Kit (Homo sapiens), P10721 [L576P]; conditions: Mus musculus
[40] = Protein binding in plasma (unknown origin); format: ADME, cell-free; conditions: read-out: PPB
[41] = test system: Mast/stem cell growth factor receptor Kit (Homo sapiens), P10721 [K642E]
[42] = target: T1, Mast/stem cell growth factor receptor Kit; format: cell-based
[43] = Toxicity in BALB/c nu mouse implanted with mouse BAF3(transformed) cells harboring c-KIT Y823D mutant assessed as change in body weight at 40 to 80 mg/kg/day, po administered via gavage for 9 days measured daily during compound dosing; format: organism-based; conditions: in vivo, 216 h
Homo sapiens [44] = format: functional; conditions: 40 mg/kg
[45] = Tmax in Beagle dog at 1 mg/kg, iv by LC-MS/MS analysis; format: ADME, organism-based, Canis lupus familiaris; conditions: in vivo
[46] = target: T2, Mast/stem cell growth factor receptor Kit; format: cell-based, GISTT1; remark: listed apart in the source
[47] = AUC (0 to t) in Sprague-Dawley rat at 10 mg/kg, po by LC-MS/MS analysis; format: ADME, organism-based; conditions: in vivo
Homo sapiens [48] = format: functional; conditions: 20 mg/kg
[49] = target: T1, Mast/stem cell growth factor receptor Kit; remark: listed apart in the source
[50] = target: Proto-oncogene tyrosine-protein kinase receptor Ret (Mus musculus) (UniProt P35546); assay: Inhibition of RET in mouse BAF3(transformed) cells assessed as growth inhibition after 72 hrs by CCK8 assay
[51] = test system: Mast/stem cell growth factor receptor Kit (Homo sapiens), P10721 [V559A]; conditions: Mus musculus
Description: Inhibition of c-KIT V559A mutant in mouse BAF3(transformed) cells assessed as growth inhibition after 72 hrs by CCK8 assay

GISTT1 [52] = format: functional, cell-based; conditions: Homo sapiens; remark: listed apart in the source
[53] = target: Platelet-derived growth factor receptor beta (Homo sapiens, UniProt P09619); assay: Binding affinity to wild-type human partial length PDGFRB (V582 to Y1009 residues) expressed in bacterial expression system assessed as residual binding level at 1 uM by Kinomescan method relative to control
[54] = target: T1, Mast/stem cell growth factor receptor Kit; format: cell-based, GISTT1; remark: listed apart in the source
[55] = target: T2, Mast/stem cell growth factor receptor Kit; format: cell-based, GISTT1; remark: listed apart in the source
[56] = target: T1, Mast/stem cell growth factor receptor Kit; format: cell-based, GISTT1; remark: listed apart in the source
Mus musculus [57] = format: functional, organism-based; conditions: BALB/c, 80 mg/kg, TDE = time-dependent effect; remark: listed apart in the source
[58] = target: Vascular endothelial growth factor receptor 3 (Homo sapiens) (UniProt P35916); assay: Binding affinity to wild-type human partial length FLT4 (E821 to E1196 residues) expressed in bacterial expression system assessed as residual binding level at 1 uM by Kinomescan method relative to control

inhibition [1]: Active
inhibition [2]: Active
inhibition [3]: Active
inhibition [4]: Active
inhibition [5]: Active
inhibition [6]: Active
inhibition [7]: Active
inhibition [8]: Active
inhibition [9]: Active
inhibition [10]: Active
SMILES: CCN(CC)CCNC(=O)c1c(C)[nH]c(/C=C2\C(=O)Nc3ccc(F)cc32)c1C [SUNITINIB]

SMILES: COc1cc2nccc(Oc3ccc(NC(=O)Cc4ccc(Cl)c(C(F)(F)F)c4)cc3)c2cc1OC
inhibition [11]: Active
Cmax [12]: 1110 ng/mL
half-life [13]: 20.6 h
half-life [14]: 15.8 h
Activity [15]: < 1%
inhibition (Mus musculus [16]): Tde
Cmax [17]: 1160 ng/mL
GI50 [18]: 4 nM
EC50 [19]: < 100 nM
inhibition (Mus musculus [20]): inactive
GI50 [21]: 522 nM
Activity (GISTT1 [22]): 0.27 g
Activity (GISTT1 [23]): 0.14 g
half-life [24]: 6.41 h
EC50 [25]: < 100 nM
Tmax [26]: 9 h
Tmax [27]: 4 h
EC50 [28]: < 100 nM
half-life [29]: 4.5 h
EC50 [30]: < 100 nM
inhibition (Mus musculus [31]): inactive
EC50 [32]: < 100 nM
GI50 [33]: 26 nM
EC50 [34]: < 100 nM
EC50 [35]: < 100 nM
Activity (GISTT1 [36]): Dose-dependent effect
inhibition (Mus musculus [37]): Tde
inhibition [38]: Active
GI50 [39]: 1 nM
fraction unbound [40]: < 0.1
GI50 [41]: 13 nM
EC50 [42]: < 100 nM
Activity [43]: Non-Toxic
TGI (Homo sapiens [44]): Dose-dependent effect
Tmax [45]: 1.98 min
EC50 [46]: < 100 nM
AUC(0-t) [47]: 25100 ng·h/mL
TGI (Homo sapiens [48]): Dose-dependent effect
EC50 [49]: < 100 nM
GI50 [50]: 280 nM
GI50 [51]: 21 nM
Activity (GISTT1 [52]): Dose-dependent effect
Activity [53]: < 1%
EC50 [54]: < 100 nM
EC50 [55]: < 100 nM
EC50 [56]: < 100 nM
inhibition (Mus musculus [57]): Tde
Activity [58]: < 1%
